Source: PMC10295897, “A Novel MDM2-Binding Chalcone Induces Apoptosis of Oral Squamous Cell Carcinoma” (Biomedicines, 2023)
Read-outs that look alike come from different tables or passages of the source.

How the values were obtained:
[1] = Solubility observed during in vitro testing; type: physicochemical; conditions: in vitro cytotoxicity testing
SCC25 cells = assay: MTT cell viability assay, SCC25 cells; type: cell-based, human
Protocol: (§1) Human SCC-4, SCC-9, and SCC-25 cells derived from a human oral tongue SCC (squamous cell carcinoma) were obtained from the ATCC (CRL-1624, CRL-1629, and CRL-1628, respectively) and maintained in 1:1 DMEM/F12 (Dulbecco’s modified Eagle medium and Ham’s F12 medium; Gibco (Thermo Fisher, Waltham, MA, USA)) supplemented with 10% (v/v) FBS (fetal bovine serum; Invitrogen, Thermo Fisher, Waltham, MA, USA) and 400 ng/mL hydrocortisone (Sigma-Aldrich Co., St. Louis, MO, USA). Primary normal human gingival fibroblasts were obtained from the ATCC (PCS-201-018; HGF) and maintained in DMEM supplemented with 10% (v/v) FBS and were used in a maximum of six passages. The cells were grown in a humidified environment containing 5% CO2 at 37 °C. For all biological experiments, the compounds and control nutlin 3a were solubilized in 100% DMSO (all Sigma-Aldrich) to a final concentration of 10 mM. Carboplatin stock was prepared in water (Fauldcarbo®; LibbsFarmacêutica, São Paulo, SP, Brazil) and was used as a standard anticancer compound.
(§2) The viability of SCC cell lines, HT-29, HCT-116, HEP2G and primary human fibroblast cells was evaluated using the MTT assay as in [26]. Briefly, the cells were grown in duplicates in 96-well plates (5 × 10^3 cells/well) until confluence. Then, the medium was removed, fresh medium was added, and the cells were returned to the incubator in the presence of different compounds. DMSO at the same concentrations was used as a 100% cell viability control. After 48 h, the cells were incubated with 5 mg/mL MTT reagent (3-(4,5-dimethyl-2-thiazolyl)-2,5-diphenyl-2-H-tetrazolium bromide) (Sigma-Aldrich Co., St. Louis, MO, USA) for 3.5 h. After that, formazan crystals were dissolved in MTT solvent solution (DMSO/methanol 1:1 v/v), and the absorbance at 560 nm was evaluated using an EPOCH microplate spectrophotometer (BioTek Instruments, Winooski, VT, USA) with the background absorbance at 670 nm subtracted. Each of the six compounds was tested at six or seven different concentrations, ranging from 0.3 µM to 200 µM in cancer cell lines (SCC-4, SCC-9 and SCC-25) and 0.3 µM to 200 µM in primary normal human gingival fibroblasts. Controls (carboplatin, nutlin 3a) were tested at six or seven different concentrations ranging from 0.05 µM to 1000 µM in cancer cells and normal cells, depending on the compound.
(§3) The data are presented as means ± SD. IC values for the MTT assays were obtained by nonlinear regression using the […] 5.0 program (Intuitive Software for Science, San Diego, CA, USA) from at least three independent experiments. A dose–response (inhibitor) vs. response curve using the least squares method was used to determine the IC50, SD, and R^2 of the data. The selectivity index was calculated as SI = IC50 of the compound in normal oral fibroblast cells/IC50 of the same compound for each cancer cell line (SCC-4, SCC-9, SCC-25, HCT-116, HT29 and HEP2G), and the mean was calculated when indicated.

HEP2G (hepatocarcinoma) = assay: MTT cell viability assay, HEP2G; type: cell-based; conditions: 48 h
Protocol: as §2, with “Each of the six compounds was tested at six or seven different concentrations, ranging from 0.3 µM to 200 µM in cancer cell lines (SCC-4, SCC-9 and SCC-25) and 0.3 µM to 200 µM in primary normal human gingival fibroblasts. Controls (carboplatin, nutlin 3a) were tested at six or seven different concentrations ranging from 0.05 µM to 1000 µM in cancer cells and normal cells, depending on the compound.” left out
The data are presented as means ± SD. […] The selectivity index was calculated as SI = IC50 of the compound in normal oral fibroblast cells/IC50 of the same compound for each cancer cell line (SCC-4, SCC-9, SCC-25, HCT-116, HT29 and HEP2G), and the mean was calculated when indicated.

HT29 (adenocarcinoma) = assay: MTT cell viability assay, HT29; type: cell-based
Protocol: as §2, §3

SCC9 cells [2] = assay: Annexin V-FITC/PI apoptosis flow cytometry; type: cell-based, human; conditions: SCC9, 2 × IC50, 48 h
Protocol: Cells of the SCC9 cell line were plated in 6-well plates (5 × 10^5 cells/well), trypsinized 48 h after treatment, labeled using the Annexin V-FITC Apoptosis Detection Kit according to the manufacturer’s protocol (#BMS500FI/300, Invitrogen), and analyzed by FACScalibur flow cytometry as in [35]. Furthermore, 5 × 10^4 SCC-9 cells were plated in a 24-well plate containing 1 mL of DMEM/F12 with 10% FBS per well. CellEvent™ Caspase-3/7 Reagent (#R37111, Invitrogen) was diluted in a culture medium according to the manufacturer’s instructions. […] The cells were analyzed by flow cytometry after 48 h of treatment.

Hemolysis assay = type: cell-based; conditions: human erythrocytes; vs Triton X-100 = 100%; 300 µM (method) / 500 µM (Figure 2)
Protocol: To determine the surfactant power of substances in biological membranes, a hemolysis assay was performed using human blood approved by the Research Ethics Committee of Universidade Federal Fluminense (CAAE: 43134721.4.0000.5626). Erythrocytes were collected by centrifugation at 1500 rpm for 15 min, washed with PBS (phosphate-buffered saline) supplemented with 10 mM glucose, and counted in an automatic cell counter (Thermo Fisher, Waltham, MA, USA). Erythrocytes were then plated in 96-well plates at a concentration of 4 × 10^8 cells/well in triplicates, and 10 µL of compounds was added at a final concentration of 300 µM in PBS with glucose (final volume 100 µL). In total, 10 µL of PBS was used as a negative control and 10 µL of PBS with 0.1% Triton X-100 as a positive control. Data reading was performed with EPOCH (BioTek Instruments, Winooski, VT, USA) at an absorbance of 540 nm, and the statistical data were generated using the […] Prism 5.0 program (Intuitive Software for Science, San Diego, CA, USA).

SCC9 cells [3] = assay: MTT cell viability assay, SCC9 oral cancer cells; type: cell-based, human; conditions: for IC50: Homo sapiens, SCC-9, 48 h, MTT
Protocol: as §1, §2, §3
Initially, the six chalcones (1a–f) were submitted to the MTT assay to evaluate their cytotoxicity. The assay was performed using the oral cancer cell line SCC9, and the results were analyzed by a non-linear regression curve to determine the value of the half maximal inhibitory concentration (IC50). As controls, known chemotherapeutic agents were used, namely carboplatin, routinely used in the treatment of oral cancer, and doxorubicin, widely used for other types of cancers.

[4] = tested on: Oral Tumor Cells (SCC9, SCC25, SCC4); assay: MTT assay, average over oral tumor cells; type: cell-based, human
Protocol: as §2, §3

For `Cc1cccc(C)c1-n1cc(/C=C/C(=O)c2ccccc2N)nn1` [1f, (E)-1-(2-Aminophenyl)-3-(1-(2,6-dimethylphenyl)-1H-1,2,3-triazol-4-yl)prop-2-en-1-one], the “solubility (in words)” value [1] was “highly soluble”, the IC50 (SCC25 cells; Homo sapiens, SCC-25, 48 h, MTT) was 5.03 µM and the “SCC25 S.I.” value (SCC25 cells; selective index = IC50 HGF / IC50 SCC25) was 5.88. For the same molecule, the IC50 (HEP2G (hepatocarcinoma)) was 39.4 µM, the IC50 (HT29 (adenocarcinoma); Homo sapiens, HT-29, 48 h, MTT) was 3.92 µM and the “HT29 S.I.” value (HT29 (adenocarcinoma); IC50 HGF / IC50 HT29) was 7.55. For the same molecule, the phosphatidylserine exposure (SCC9 cells [2]) was 43.0%, the hemolysis at 300 µM (Hemolysis assay) was under 2% and the IC50 (SCC9 cells [3]; 48 h, read-out: SCC9 IC50) was 3.87 µM. For the same molecule, the IC50 (SCC9 cells [3]; SCC9, 48 h, read-out: IC50) was 3.87 µM, the “SCC9 S.I.” value (SCC9 cells [3]; selective index = IC50 HGF / IC50 SCC9) was 7.63 and the IC50 ([4]; Homo sapiens, mean of SCC9, SCC25, SCC4) was 4.54 µM. The “Average S.I.” value ([4]; IC50 of normal primary fibroblasts / average IC50 of tumor cells) was 6.51.
